Consider 6 molecules from PMC10609883, “Design, Synthesis and Biological Evaluation of Novel N-Arylpiperazines Containing a 4,5-Dihydrothiazole Ring” (Pharmaceuticals, 2023).

For series [1], the system named is SKBR-3. Briefly: Cytotoxic activity, sulforhodamine B assay, SKBR-3. Type of series: cell-based. Particulars: Homo sapiens, SK-BR-3, SKBR-3 breast cancer cells, 72 h. Here is the method:
(§1) Media, serum and antibiotics for cell culture were from Lonza (Basel, Switzerland). MCF7 (ER+, PR+, HER2−), SKBR3 (ER−, […], HER2+) and MDA-MB231 (ER−, PR−, HER2−) human breast cancer cells; MCF10A non-cancer breast epithelial cells; LNCAP (androgen sensitive), DU145 and PC3 (androgen independent) human prostate cancer cells; and PNT1 non-cancer prostate epithelial cells were available in our laboratory. MCF7, SKBR3 and MDA-MB231 cells were cultured in DMEM, supplemented with 10% FBS, 2 mM glutamine, 100 units/mL penicillin and 100 units/mL streptomycin. MCF10A cells were cultured in MEBM and supplemented with 0.4% BPE, 0.1% hEGF, 0.1%, Insulin, 0.1% Hydrocortisone and 0.1% GA-1000. LNCAP and DU145 cells were cultured in RPMI and supplemented with 10% FBS, 2 mM glutamine, 100 units/mL penicillin and 100 units/mL streptomycin. PC3 and PNT1 cells were cultured in DMEM-F12 (1:1), supplemented with 10% FBS, 2 mM glutamine, 100 units/mL penicillin and 100 units/mL streptomycin. Cultures were maintained in a humidified atmosphere of 95% air and 5% CO2 at 37 °C. Treatment with compounds were carried out in culture conditions. For cell survival assay, cells were fixed with 50% trichloroacetic acid for at least 2 h at 4 °C, washed with distilled and de-ionized water, air-dried and stained for 30 min with 0.4% sulforhodamine B in 1% acetic acid. Unbound dye was removed, and 10 mM tris-HCl solution (pH 7.5) was added to dissolve the protein-bound dye. Cell survival was assessed by optical density determination at 510 nm using a microplate reader.
(§2) Figure 2 Effect of novel thiazolinylphenyl-piperazines (2a–c) on BCa cell viability. MCF7, SKBR3 and MDA cells were treated with rising concentrations (5 μM, 10 μM, 25 μM, 50 μM, 100 μM) of 2a–c. After 72 h, cell viability was assessed by sulforhodamine B assay. The results were reported as percentage of viable cells compared to positive control (untreated cells that were considered to represent the maximum viability of 100%). […]

In series [2] the test system is LNCAP. Briefly: Cytotoxic activity, sulforhodamine B assay, LNCAP. Type of series: cell-based, human. Particulars: 72 h, LNCAP prostate cancer cells. The procedure: as §1
(§3) Figure 1 Effect of novel thiazolinylphenyl-piperazines (2a–c) on PCa cell viability. LNCAP, DU145 and PC3 cells were treated with rising concentrations (5 μM, 10 μM, 25 μM, 50 μM, 100 μM) of 2a–c. After 72 h, cell viability was assessed by sulforhodamine B assay. The results were reported as percentage of viable cells compared to positive control (untreated cells that were considered to represent the maximum viability of 100%). Data represent the mean ± SD of at least three independent triplicate experiments. * denotes statistically significant values compared with positive control (* adjp < 0.05, ** adjp < 0.01).
For orientation: The SRB assay estimates cell density from bound dye.

In series [3] the test system is MCF-7. The series can be described thus: Cytotoxic activity, sulforhodamine B assay, MCF-7. The class given is cell-based. Particulars: Homo sapiens, MCF7, MCF-7 breast cancer cells, 72 h. The procedure: as §1, §2
Series [4] relates to MDA-MB231. Briefly: Cytotoxic activity, sulforhodamine B assay, MDA-MB231. Particulars: Homo sapiens, MDA-MB-231, MDA-MB231 breast cancer cells, 72 h. Type of series: cell-based. The procedure:
as §1
as §3, with “Figure 2” for “Figure 1”, “on BCa” for “on PCa”, “viability. MCF7, SKBR3” for “viability. LNCAP, DU145”, “and MDA” for “and PC3”, “< 0.01, *** adjp < 0.001).” for “< 0.01).”
as §3, with “Figure 3” for “Figure 1”, “thiazolinylphenyl-piperazines (3a–c)” for “thiazolinylphenyl-piperazines (2a–c)”, “on PC3 and MDA” for “on PCa”, “viability. Cells” for “viability. LNCAP, DU145 and PC3 cells”, “of 3a-c.” for “of 2a–c.”, “< 0.01, *** adjp < 0.001, **** adjp < 0.0001).” for “< 0.01).”

The subject of series [5] is DU-145. Briefly: Cytotoxic activity, sulforhodamine B assay, DU-145. The class given is cell-based. Particulars: Homo sapiens, DU-145 prostate cancer cells, 72 h. The procedure:
as §1
Figure 1 Effect of novel thiazolinylphenyl-piperazines (2a–c) on PCa cell viability. LNCAP, DU145 and PC3 cells were treated with rising concentrations (5 μM, 10 μM, 25 μM, 50 μM, 100 μM) of 2a–c. After 72 h, cell viability was assessed by sulforhodamine B assay. The results were reported as percentage of viable cells compared to positive control (untreated cells that were considered to represent the maximum viability of 100%). […]

The target of series [6] is T1, 5-HT1A receptor (Rattus norvegicus, UniProt P19327).
T1 construct: supplemented with 0.1% ascorbate, 5 mM MgCl2 and 80 µg of hippocampal membrane suspension; from tissue; host or cells: rat hippocampus membranes (Sprague Dawley)
T1 sequence (P19327 1-422): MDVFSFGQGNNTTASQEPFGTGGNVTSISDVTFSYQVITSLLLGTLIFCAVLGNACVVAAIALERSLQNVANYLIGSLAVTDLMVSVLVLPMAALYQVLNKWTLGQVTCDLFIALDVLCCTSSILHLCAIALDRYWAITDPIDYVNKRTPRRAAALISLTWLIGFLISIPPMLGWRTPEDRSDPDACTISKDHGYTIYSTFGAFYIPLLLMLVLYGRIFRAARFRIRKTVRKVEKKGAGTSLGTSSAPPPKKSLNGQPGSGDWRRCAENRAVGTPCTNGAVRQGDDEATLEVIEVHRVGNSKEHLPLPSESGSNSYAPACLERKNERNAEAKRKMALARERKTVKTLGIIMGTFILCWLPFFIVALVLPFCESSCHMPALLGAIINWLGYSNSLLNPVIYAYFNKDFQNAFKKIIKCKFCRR
The series can be described thus: Competitive 5-HT1A binding assay, [3H]8-OH-DPAT, hippocampal membranes. Particulars: 5-HT1A receptor binding affinity; 1 nM [3H]8-OH-DPAT, hippocampal membrane; Cheng–Prusoff; read-out: Ki (µM, 95% CI). Details: species or system Sprague Dawley rats. The procedure:
Brains were rapidly removed and placed on ice. Hippocampi (for 5-HT1A assays) and frontal cortices (for 5-HT2A assays) were dissected on a Petri dish. […] The homogenate was centrifuged at 48,000× g at 4 °C for 15 min. […] The centrifugation and suspension steps were repeated twice.
Non-specific binding was determined with 10 μM serotonin. The final DMSO concentration in the assay was 5%. […] Each well was washed with 2 mL of 50 mM Tris-HCl (pH 7.4) buffer to separate bound ligands from free ones. Plates were left to dry overnight. […] Binding curves were fitted with one site non-linear regression.

The test system of series [7] is PC-3. Briefly: Cytotoxic activity, sulforhodamine B assay, PC-3. The class given is cell-based. Particulars: Homo sapiens, PC-3 prostate cancer cells, 72 h. The procedure:
as §1
Figure 1 Effect of novel thiazolinylphenyl-piperazines (2a–c) on PCa cell viability. LNCAP, DU145 and PC3 cells were treated with rising concentrations (5 μM, 10 μM, 25 μM, 50 μM, 100 μM) of 2a–c. After 72 h, cell viability was assessed by sulforhodamine B assay. […]
Figure 3 Effect of novel thiazolinylphenyl-piperazines (3a–c) on PC3 and MDA cell viability. […] After 72 h, cell viability was assessed by sulforhodamine B assay. […]

Several values for one entry are separate records, joined by “and”; a condition that tells them apart may be missing. Equal values may be shown once.

For the molecule `c1ccc(N2CCNCC2)c(C2=NCCS2)c1` [2a, 2-(2-(Piperazin-1-yl)phenyl)-4,5-dihydrothiazole], the IC50 (as a rule, the concentration at which inhibition is half-maximal) in series [1] was determined as 28.2 ± 4.1 µM; in series [2] (Homo sapiens, LNCaP) it was 67.2 ± 13.1 µM; in series [3], 14.7 ± 1.9 µM; in series [4] it was 31.4 ± 5.1 µM; in series [5], 66.6 ± 7.3 µM. In addition, the inhibition constant (Ki) – broadly, a measure of affinity in units of concentration, obtained from inhibition or displacement – in series [6] is 2.29 µM and 2.3 µM.

For the molecule `c1cc(C2=NCCS2)cc(N2CCNCC2)c1` [2b, 2-(3-(Piperazin-1-yl)phenyl)-4,5-dihydrothiazole], the half-maximal inhibitory concentration (IC50) in series [1] was determined as 27.6 ± 5.6 µM; in series [2] (Homo sapiens, LNCaP) it was 48.5 ± 7.3 µM; in series [3], 15.9 ± 1.8 µM; in series [4], 40 ± 9.8 µM; in series [5], 66.6 ± 9.4 µM. Further, the inhibitory constant (Ki) in series [6] worked out at 0.412 µM.

`c1cc(N2CCNCC2)ccc1C1=NCCS1` [2c, 2-(4-(Piperazin-1-yl)phenyl)-4,5-dihydrothiazole]: the IC50 in series [1] turned out to be 27.7 ± 4.8 µM; in series [2] (Homo sapiens, LNCaP) it was 32 µM; in series [2] it was 31.9 ± 9.2 µM; in series [3] it was 19.5 ± 2.3 µM; in series [4], 36.3 ± 7.7 µM; in series [5] it was 47.7 ± 11.7 µM. Besides, in series [6], the Ki amounted to 49.5 µM.

Regarding `CC(=O)N1CCN(c2ccccc2C2=NCCS2)CC1` [3a, 1-(4-(2-(4,5-Dihydrothiazol-2-yl)phenyl)piperazin-1-yl)ethan-1-one], the melting point – broadly, the temperature of the solid-liquid transition – was 90 to 92 °C. Also, in series [4], 23.3 ± 3.4 µM corresponded to half-maximal inhibition (IC50). Moreover, the midpoint of inhibition in series [7], the IC50, lay at 73.3 ± 10.3 µM.

With `CC(=O)N1CCN(c2cccc(C3=NCCS3)c2)CC1` [3b, 1-(4-(3-(4,5-Dihydrothiazol-2-yl)phenyl)piperazin-1-yl)ethan-1-one], the values for the IC50 in series [4] and in series [7] were 34.6 ± 5.4 µM and 65 ± 7.4 µM, respectively.

Take `CC(=O)N1CCN(c2ccc(C3=NCCS3)cc2)CC1` [3c, 1-(4-(4-(4,5-Dihydrothiazol-2-yl)phenyl)piperazin-1-yl)ethan-1-one]: the IC50 in series [4] was determined as 47.1 ± 6.7 µM; in series [7], 32.1 ± 10.2 µM.
